Reference: US10085955B2, “Methods and compositions for treatment of demyelinating diseases” (Pathologica LLC, priority 2013, dated 2018)
Entries after “also recorded” stand apart in the source; their conditions may differ. Marks after values point to notes of the source that are not given here.

What was measured:
[1] = test system: CNS-infiltrating cells; assay: Fourth MOG EAE protocol, flow cytometric analysis of CNS-infiltrating cells at onset and peak; type: in vivo, C57BL/6 mice
Experimental: A fourth EAE experiment was run similarly to the above, but was designed to examine the effect of MGBG on cell populations during onset and peak disease. In this protocol, there were 3 experimental groups with 20 mice/group and 1 mock-immunized group with 8 mice. Fingolimod was dosed at 1 mpk QD, MGBG at 30 mpk BID, and the pertussis toxin was administered at 165 ng/dose for both injections. Flow cytometric analysis was performed on CNS-infiltrating cells from 16 mice from each of the vehicle-, fingolimod- and MGBG-treated groups, as well as from all mice in the mock-immunized group. Half of the analyzed mice from each group were collected at the time of EAE onset in the vehicle group and half were collected at the time of EAE peak in the vehicle group. Mouse termination was over eight separate days, because individual mouse in the vehicle group reached EAE onset and EAE peak on different days. Eight (8) of the mice in the vehicle group were sacrificed at each time-point. For each of these mice, a matching mouse from each of Groups 2 and 3 was sacrificed on the same day. For each two (2) of these vehicle group mice, a matching mouse from Group 4 was sacrificed. When selecting matching mice from other groups for termination, the mouse with the highest EAE score was chosen. If no mouse in the group had signs of EAE, a mouse was chosen at random.

[2] = test system: MOG-induced experimental autoimmune encephalomyelitis (EAE); assay: Third MOG EAE protocol (MGBG, fingolimod and combination); type: in vivo, C57BL/6 mice; conditions: MGBG 30 mpk twice-daily, fingolimod 0.1 mpk once-daily, or both
Description: An experimental murine model of multiple sclerosis employing a myelin oligodendrocyte glycoprotein (MOG) peptide to induce experimental autoimmune encephalomyelitis (EAE) was employed to determine the efficacy of MGBG in preventing and treating that disease. Because of its many similarities to MS, EAE is commonly used to study pathogenesis of autoimmunity, CNS inflammation, demyelination, cell trafficking, and tolerance induction. EAE is characterized by paralysis (in some models the paralysis is remitting-relapsing), CNS inflammation and demyelination. EAE is mediated primarily by dendritic cells, myelin-specific T cells (e.g. Th1 and Th17), and M1 macrophages. B cells may also play a role in some models of EAE. Body weight also tracks disease progression. EAE is induced in C57BL/6 mice by immunization with MOG35-55 or MOG1-125 in CFA emulsion followed by administration of pertussis toxin (PTX) in PBS. The emulsion provides antigen which initiates expansion and differentiation of MOG-specific autoimmune T cells. PTX enhances EAE development by providing additional adjuvant and facilitating entrance of autoimmune T cells into the CNS.
Chronic EAE develops in C57BL/6 mice after immunization with an emulsion of MOG35-55/CFA or MOG1-125/CFA followed by injection of pertussis toxin. This model is used to test the potential of compounds to prevent or mitigate EAE disease. It can be run with the compound dosed from the time of immunization (prophylactic treatment), or with the aim of reversing the course of disease and facilitating recovery by dosing the compound from the time of EAE onset (therapeutic treatment). The model uses female C57BL/6 mice of age 10 to 14 weeks at the start of the study. Typically, EAE develops 8-18 days after immunization. EAE development is usually followed for 4 weeks (28 days) after immunization.
Clinically, EAE progression is scored on a scale of 0 to 5, wherein each score represents the following clinical observations:
Inflammatory foci of approximately 20 cells were counted in each H&E stained section. When inflammatory infiltrates consisted of more than 20 cells, an estimate was made of how many foci of 20 cells were present.
The demyelination score represents an estimate of demyelinated area for each section as follows:
Ten week old female C57BL/6 mice weighing 18-23 g (Taconic Farms) were divided into four groups: mock immunized (n=3) and three MOG-immunized groups receiving MGBG at 30 mpk BID (as the di-HCl monohydrate with a correction factor of 1.49), […] dose, or 0.9% saline vehicle BID (n=12 each). […]

With `CC(/C=N/NC(=N)N)=N\NC(=N)N` [MGBG, 1,1′ [methylethanediylidene]dinitrilodiguanidine] the “CD4+ IFNy+” value ([1]; Onset) was 3.19 +/− # cells (10^3), the “CD4+ IFNγ+” value ([1]; Onset) was 9.57 % cells and the “CD4+ IL-17A+ IFNy+” value ([1]; Onset) was 1.56 +/− # cells (10^3). The “CD4+ IL-17A+ IFNγ+” value ([1]; Onset) was 4.14 % cells, the “CD4+ IFNy+” value ([1]; Peak) was 4.57 +/− # cells (10^3) and the “CD4+ IFNγ+” value ([1]; Peak) was 9.37 % cells. For the same compound, the “CD4+ IL-17A+ IFNy+” value ([1]; Peak) was 3.01 +/− # cells (10^3), the “CD4+ IL-17A+ IFNγ+” value ([1]; Peak) was 5.45 % cells and the “CNS infiltration by proinflammatory cells” value ([1]; fourth study, MGBG 30 mpk BID) was “reduced”. The “proportion and number of infiltrating dendritic cells” value ([1]; fourth study, MGBG 30 mpk BID vs fingolimod 1 mpk QD) was “reduced in MGBG-treated mice more than in fingolimod-treated mice”, the “CD11c+ of CD4− CD45.2+ high cells In Peak of Disease in Animals Without EAE Disease” value ([1]; subset of animals which did not develop disease when vehicle-treated animals were at peak) was 2.93 +/− 0.37 and the “clinical scores / development of EAE” value ([2]; third 28-day study) was “suppressed EAE comparably to 0.1 mpk fingolimod; also recorded: equivalently efficacious in preventing EAE development”. The “cellular apoptosis in spinal cord” value ([2]; third study) was “equivalently efficacious in reducing apoptosis”, the “number of inflammatory foci in spinal cord” value ([2]; third study) was “equivalently efficacious in reducing the number of inflammatory foci” and the spinal cord demyelination ([2]; third study) was “equivalently efficacious in reducing demyelination”.
